Data: patent publication US20190021976A1, “COMPOSITION FOR PREVENTING, IMPROVING OR TREATING PHOTOAGING OF SKIN COMPRISING DHPV” (SUNGKWANG MEDICAL FOUNDATION, priority 2016, published 2019)

Key:
[1] = system: Involucrin (IVL) DNA promoter region; test: Methylation specific PCR of IVL promoter in UV-irradiated human skin cells; type: cell-based; settings: FIG. 4
Source text: The aging was induced by irradiation with 0.1 J/cm^2 UV on human skin cells (hypodermis and epidermis were separated using HaCaT cell line purchased from ATCC and human body derived Foreskin, and primary cell culture was used). DNA of the cells was extracted using NucleoSin® Tissue Kit (Macherey-Nagel, Düren, Germany). The extracted DNA was quantified using Nano Drop and its quality was confirmed. In the extracted DNA, unmethylated Cytosine residues were converted to Uracil residues by treating Bisulfite using EZ DNA Methylation-Lightning™ Kit (Zymoresearch, CA, USA) for methylation analysis.
Distilled water was added to Bisulfited DNA 100 ng, primer pair (20 pmole) respectively, 1 uL, TaKaRa EpiTaq HS (5 U/μl) 0.25 uL, 10× EpiTaq PCR Buffer (Mg2^+ free) 5 uL, 25 mM MgCl2 5 uL, dNTP Mixture (2.5 mM each) 6 uL to be 50 uL of the final volume, and then after reacting for […] at 98° C., the procedure of 10 sec at 98° C., 1 min at 55° C., and 30 sec at 72° C. as 40 cycles was repeated and reacted. Then, after extending for 5 min at 72° C., the result was analyzed in 2% (w/v) agarose gel.
Methylation of IVL promoter by DHPV and relative methylation tendency were analyzed by methylation specific PCR which can relatively compare methylation or non-methylation of genes according to band intensity on the electrophoresis. […]

PFN1 = test: Western blot of PFN1 expression in UV-irradiated human skin cells; type: cell-based; settings: 0.1 J/cm^2 UV, DHPV 0.5, 1 nM, FIG. 2
Procedure: (§1) First, aging was induced by irradiation with 0.1 J/cm^2 UV on human skin cells (hypodermis and epidermis were separated using HaCaT cell line purchased from ATCC and human body derived Foreskin, and primary cell culture was used). Next, DHPV, a metabolite of cacao, prepared in 1-1 was treated 0.5, 1 nM, respectively, and cells were obtained.
The expression level of PFN1 as a novel aging marker of epidermal cells was confirmed with Western blot by the same method as the above method except using anti-PFN1 (Abcam, ab118984) antibody instead of anti-involucrin (Santacruz, sc28557) antibody and HRP-combined goat anti-mouse IgG (1:3000; sc 2005, SantaCruz) instead of HRP-combined goat anti-rabbit IgG (1:1000; sc 2004, SantaCruz).

MMP-1 = MMP-1 real time PCR in UVB-irradiated human derived hypodermis fibroblasts; type: cell-based; settings: medium containing DHPV for 24 hrs, FIG. 3A
Procedure: (§2) First, human derived hypodermis fibroblasts (hypodermis and epidermis were separated using human body derived Foreskin and the primary cell culture was used) were cultured in the DMEM medium containing 10% FBS (fetal bovine serum), and then cultured in serum free media for 24 hrs and UVB was irradiated. Next, cells were cultured in a medium containing serum or a medium containing 1-41M DHPV for 24 hrs, thereby collecting cells.
In order to confirm changes of mRNA expression level of MMP-1, mRNA was obtained using RNAiso Plus (Takara Bio Inc., Shiga, Japan). Next, CDNA was synthesized and prepared using PrimeScript™ 1st Plus (Takara Bio Inc., Shiga, Japan), and real time PCR was conducted using IQ SYBR (Bio-Rad Laboratories). The primer sequences used in conducting PCR were as same as the following Table 1.

AP-1 = AP-1 luciferase reporter gene assay in UVB-irradiated hypodermis fibroblasts; type: cell-based, human; settings: DHPV treatment, FIG. 3B
Procedure: as §2
AP-1 was obtained by inoculating pGF-AP1-mCMV-EF1-Puro vector (System Biosciences, CA) and a package vector, pMD2.0G and psPAX (Addgene Inc, Cambridge, Mass.) to HEK293T cell and in 36 hrs, viral particles were obtained using […] injection filter, in order to measure activity changes by UVB irradiation through luciferase reporter gene assay. Next, it was inoculated to hypodermis fibroblasts, and cells that injection with puromycin (Sigma, MO, […]) was successes were obtained. Then the activity of AP-1 was measured by using luciferase assay kit (Promega, Madison, Wis.) after culturing cells in the same manner with the hypodermal fibroblast culturing method and treating with DHPV.

[2] = system: HaCaP cell line and hypodermal cells isolated from human derived foreskin; test: Biostability: cell viability (Ez-cytox); type: cell-based; settings: FIG. 5
Procedure: In order to evaluate DHPV biostability, HaCaP cell line and hypodermal cells isolated from human derived foreskin were inoculated (2×10^4 cell each) and cultured on the 24 well plate and stabilized. Then, the cells were cultured in serum free media for 24 hrs and 48 hrs.

IVL (involucrin) = test: Western blot of IVL (involucrin) expression in UV-irradiated human skin cells; type: cell-based
Procedure: as §1
The expression level of IVL (involucrin) which is one of aging markers of epidermal cells was confirmed by Western blot. Cells were degraded using cell dissolution buffer containing protease inhibitor cocktail kit (P3100-005; GenDEPOT, Barker, Tex.), and phosphatase inhibitor (sc-45065; Santa Cruz Biotechnology, Santa Cruz, Calif.) (#9803; Cell SignalingTechnology, Danvers, Mass.). The aliquot containing 25 ug of cell lysates was separated by electrophoresis on SDS-polyacrylamide gel, and then transferred to nitrocellulose membrane (Amersham, Buckinghamshire, UK) for 180 min at 75 V and […] on a transfer buffer (25 mM Tris, 192 mM glycine, 20% [v/v] methanol [pH 8.3]). The membrane was blocked with PBS of 3% (w/v) BSA containing 0.1% (v/v) Tween-20 for 60 min, and then cultured with anti-involucrin (Santacruz, sc28557) antibody. HRP-combined goat anti-rabbit IgG (1:1000; sc 2004, SantaCruz) was used as a secondary antibody. ECL lumi Femto solution A/B (Dogen, Seoul, Korea) was used to develop blots.

O=C1CCC(Cc2ccc(O)c(O)c2)O1 (centres unmarked) [DHPV, 5-(3′,4′-Dihydroxyphenyl)-Γ-valerolactone]
methylation of Involucrin (IVL) DNA promoter region induced by photoaging ([1]; 0.1 J/cm^2 UV, methylation specific PCR): inhibited methylation | intensity of methylation band ([1]; UV treated cells when treating DHPV, electrophoresis): decreased | expression level of the PFN1 marker (PFN1): increased in a concentration-dependent manner | mRNA expression of MMP-1 (MMP-1): recovered similarly to the control group | activity of AP-1 (AP-1): recovered similarly to the control group | biostability (cell viability) [2]: shown similarly to that of control group | concentration exhibiting excellent skin aging-preventing function (IVL (involucrin); based on skin cells): 1 nM | expression level of the IVL marker (amount of UV-increased IVL) (IVL (involucrin); human skin cells, 0.1 J/cm^2 UV, DHPV 0.5, 1 nM, FIG. 2): reduced in a concentration-dependent manner
